Drawing on US20210253575A1, “PYRROLIDINE AMINE COMPOUNDS FOR THE TREATMENT OF AUTOIMMUNE DISEASE” (Hoffmann-La Roche Inc., priority 2018, published 2021), this text covers IC50 for 22 compounds.

This experiment deals with T1, human TLR8 (Homo sapiens, UniProt Q9NR97).
T1 sequence (Q9NR97 27-1041): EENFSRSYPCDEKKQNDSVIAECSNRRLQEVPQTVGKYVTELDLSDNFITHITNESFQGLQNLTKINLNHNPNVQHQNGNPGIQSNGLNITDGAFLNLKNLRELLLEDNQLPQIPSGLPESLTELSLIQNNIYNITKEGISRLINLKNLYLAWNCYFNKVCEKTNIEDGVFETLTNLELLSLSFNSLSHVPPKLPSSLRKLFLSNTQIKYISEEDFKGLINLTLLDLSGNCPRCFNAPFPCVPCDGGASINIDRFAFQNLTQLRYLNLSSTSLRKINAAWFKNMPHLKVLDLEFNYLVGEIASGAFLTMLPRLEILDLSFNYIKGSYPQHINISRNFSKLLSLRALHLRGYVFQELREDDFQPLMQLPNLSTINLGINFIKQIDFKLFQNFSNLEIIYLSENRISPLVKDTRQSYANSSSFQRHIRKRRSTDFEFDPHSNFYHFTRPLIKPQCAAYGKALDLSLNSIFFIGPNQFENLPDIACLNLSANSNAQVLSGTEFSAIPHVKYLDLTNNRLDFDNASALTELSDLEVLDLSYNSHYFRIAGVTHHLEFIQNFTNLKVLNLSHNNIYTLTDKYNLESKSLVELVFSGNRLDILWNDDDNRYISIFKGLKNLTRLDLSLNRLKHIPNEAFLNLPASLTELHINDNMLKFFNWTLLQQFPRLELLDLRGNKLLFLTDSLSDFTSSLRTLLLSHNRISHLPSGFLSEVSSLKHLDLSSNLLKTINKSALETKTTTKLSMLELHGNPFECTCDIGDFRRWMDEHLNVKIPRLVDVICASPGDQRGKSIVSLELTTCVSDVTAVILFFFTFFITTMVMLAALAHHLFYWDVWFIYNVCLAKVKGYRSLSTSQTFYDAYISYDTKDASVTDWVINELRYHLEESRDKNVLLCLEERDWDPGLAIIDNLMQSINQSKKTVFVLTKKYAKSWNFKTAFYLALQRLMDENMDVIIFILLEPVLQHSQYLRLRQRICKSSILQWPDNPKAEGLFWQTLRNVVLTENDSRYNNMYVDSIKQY
The experiment is described as follows: HEK293-Blue-hTLR-8 cells assay (SEAP reporter, R848 stimulation). It is filed as cell-based. As to conditions: HEK293-Blue-hTLR8 cells, R848 ligand, 20 hrs incubation. As to the method:
The following tests were carried out in order to determine the activity of the compounds of formula (I) in HEK293-Blue-hTLR-7/8/9 cells assay.
HEK293-Blue-hTLR-8 Cells Assay:
A stable HEK293-Blue-hTLR-8 cell line was purchased from InvivoGen (Cat. #: hkb-htlr8, San Diego, Calif., USA). These cells were originally designed for studying the stimulation of human TLR8 by monitoring the activation of NF-κB. A SEAP (secreted embryonic alkaline phosphatase) reporter gene was placed under the control of the IFN-β minimal promoter fused to five NF-κB and AP-1-binding sites. The SEAP was induced by activating NF-κB and AP-1 via stimulating HEK-Blue hTLR8 cells with TLR8 ligands. Therefore the reporter expression was declined by TLR8 antagonist under the stimulation of a ligand, such as R848, for incubation of 20 hrs. The cell culture supernatant SEAP reporter activity was determined using QUANTI-Blue™ kit (Cat. #: rep-qb1, Invivogen, San Diego, Ca, USA) at a wavelength of 640 nm, a detection medium that turns purple or blue in the presence of alkaline phosphatase.
HEK293-Blue-hTLR8 cells were incubated at a density of 250,000˜450,000 cells/mL in a volume of 170 μL in a 96-well plate in Dulbecco's Modified Eagle's medium (DMEM) containing 4.5 g/L glucose, 50 U/mL penicillin, […], […], 2 mM L-glutamine, 10% (v/v) heat-inactivated fetal bovine serum with addition of 20 μL test compound in a serial dilution in the presence of final DMSO at 1% and 10 μL of 60 uM R848 in above DMEM, perform incubation under 37° C. in a CO2 incubator for 20 hrs. Then 20 μL of the supernatant from each well was incubated with 180 μL Quanti-blue substrate solution at 37° C. for 2 hrs and the absorbance was read at 620-655 nm using a spectrophotometer. The signalling pathway that TLR8 activation leads to downstream NF-κB activation has been widely accepted, and therefore similar reporter assay was modified for evaluating TLR8 antagonist.
Broadly, the IC50 is the concentration needed to halve the response being measured. On to `CC[C@@H]1CN(c2ccc(C#N)c3ncccc23)C[C@H]1CN1CCC2(CCNCC2)CC1` (relative stereo) [Example 15, 5-[Trans-3-(3,9-diazaspiro[5.5]undecan-3-ylmethyl)-4-ethyl-pyrrolidin-1-yl]quinoline-8-carbonitrile], for which the IC50 was determined as 0.19 µM. This lies in the sub-micromolar range.
In turn, `FC(F)(F)c1ccc(N2C[C@@H](CN3CCC4(CCNC4)C3)[C@H](C(F)(F)F)C2)c2nccnc12` (relative stereo) [Example 19, 5-[Trans-3-(2,7-diazaspiro[4.4]nonan-2-ylmethyl)-4-(trifluoromethyl)pyrrolidin-1-yl]-8-(trifluoromethyl)quinoxaline] came in with an IC50 of 0.253 µM.
With `C[C@@H]1CN(c2ccc(C(F)(F)F)c3nccnc23)C[C@H]1CN1CCC2(CCNCC2)CC1` (relative stereo) [Example 21, 3-[[Trans-4-methyl-1-[8-(trifluoromethyl)quinoxalin-5-yl]pyrrolidin-3-yl]methyl]-3,9-diazaspiro[5.5]undecane], half-maximal inhibition (IC50) required 0.351 µM.
As to `N#Cc1ccc(N2C[C@@H](CN3CCC4(CCNCC4)CC3)[C@H](C(F)F)C2)c2cccnc12` (relative stereo) [Example 27, 5-[Trans-3-(3,9-diazaspiro[5.5]undecan-3-ylmethyl)-4-(difluoromethyl)pyrrolidin-1-yl]quinoline-8-carbonitrile], the IC50 is 0.454 µM.
The compound `N#Cc1ccc(N2C[C@@H](CN3CCC4(CCNCC4)CC3)[C@H](C3CC3)C2)c2cccnc12` (relative stereo) [Example 28, 5-[Trans-3-cyclopropyl-4-(3,9-diazaspiro[5.5]undecan-3-ylmethyl)pyrrolidin-1-yl]quinoline-8-carbonitrile] came in with an IC50 of 0.948 µM.
Under `CC[C@@H]1CN(c2ccc(C#N)c3ncccc23)C[C@H]1CN1CCC2(CCNC2)C1` (relative stereo) [Example 29, 5-[Trans-3-(2,7-diazaspiro[4.4]nonan-2-ylmethyl)-4-ethyl-pyrrolidin-1-yl]quinoline-8-carbonitrile] stands 0.197 µM; under `C[C@@H]1CN(c2ccc(C(F)(F)F)c3nccnc23)C[C@H]1CN1CCC(N2CCCCC2)CC1` (relative stereo) [Example 33, 5-[Trans-3-methyl-4-[[4-(1-piperidyl)-1-piperidyl]methyl]pyrrolidin-1-yl]-8-(trifluoromethyl)quinoxaline], 0.245 µM.
Under `N#Cc1ccc(N2C[C@@H](CN3CCC4(CCNC4)C3)[C@H](C(F)F)C2)c2cccnc12` (relative stereo) [Example 34, 5-[Trans-3-(2,7-diazaspiro[4.4]nonan-2-ylmethyl)-4-(difluoromethyl)pyrrolidin-1-yl]quinoline-8-carbonitrile] stands 0.373 µM.
`CC(C)[C@@H]1CN(c2ccc(C#N)c3ncccc23)C[C@H]1CN1CCC2(CCNCC2)CC1` (relative stereo) [Example 36, 5-[Trans-3-(3,9-diazaspiro[5.5]undecan-3-ylmethyl)-4-isopropyl-pyrrolidin-1-yl]quinoline-8-carbonitrile] registered an IC50 of 5.17 µM.
`CC(C)[C@@H]1CN(c2ccc(C#N)c3ncccc23)C[C@H]1CN1CCC2(CCNC2)C1` (relative stereo) [Example 44, 5-[Trans-3-(2,7-diazaspiro[4.4]nonan-2-ylmethyl)-4-isopropyl-pyrrolidin-1-yl]quinoline-8-carbonitrile] showed an IC50 of 0.533 µM.
The compound `N#Cc1ccc(N2CC(CN3CCC(N)CC3)C3(CC3)C2)c2nccnc12` (single isomer, unassigned) [Example 68A, 8-[7-[(4-Amino-1-piperidyl)methyl]-5-azaspiro[2.4]heptan-5-yl]quinoxaline-5-carbonitrile] returned an IC50 of 0.06 µM.
As for `N#Cc1ccc(N2C[C@H](CN3CCC4(CCNCC4)CC3)[C@@H](C(F)(F)F)C2)c2nccnc12` [Example 1, 8-[(3S,4R)-3-(3,9-diazaspiro[5.5]undecan-3-ylmethyl)-4-(trifluoromethyl)pyrrolidin-1-yl]quinoxaline-5-carbonitrile], the figure is 0.02 µM; as for `N#Cc1ccc(N2C[C@H](CN3CCC4(CCNCC4)CC3)[C@@H](C(F)(F)F)C2)c2cccnc12` [Example 2, 5-[(3S,4R)-3-(3,9-diazaspiro[5.5]undecan-3-ylmethyl)-4-(trifluoromethyl)pyrrolidin-1-yl]quinoline-8-carbonitrile], 0.057 µM.
The compound `N#Cc1ccc(N2C[C@H](CN3CCC4(CCNC4)C3)[C@@H](C(F)(F)F)C2)c2nccnc12` (stereo partly drawn) [Example 5, 8-[(3S,4R)-3-(2,7-diazaspiro[4.4]nonan-2-ylmethyl)-4-(trifluoromethyl)pyrrolidin-1-yl]quinoxaline-5-carbonitrile] returned a concentration for half-maximal inhibition (IC50) of 0.035 µM.
Compound `N#Cc1ccc(N2C[C@H](CN3CCC4(CCCNC4)C3)[C@@H](C(F)(F)F)C2)c2cccnc12` (stereo partly drawn) [Example 6, 5-[(3S,7R)-3-(2,9-diazaspiro[4.5]decan-2-ylmethyl)-4-(trifluoromethyl)pyrrolidin-1-yl]quinoline-8-carbonitrile] gave a 50% inhibitory concentration (IC50) of 0.039 µM.
Take `CC1(N)CCN(CC2CN(c3ccc(C#N)c4nccnc34)CC23CC3)CC1` (stereo not shown) [Example 7, 8-[7-[(4-Amino-4-methyl-1-piperidyl)methyl]-5-azaspiro[2.4]heptan-5-yl]quinoxaline-5-carbonitrile]: the IC50 was 0.043 µM.
`N#Cc1ccc(N2C[C@H](CN3CC4(CCCNC4)C3)[C@@H](C(F)(F)F)C2)c2cccnc12` [Example 8, 5-[(3S,7R)-3-(2,8-diazaspiro[3.5]nonan-2-ylmethyl)-4-(trifluoromethyl)pyrrolidin-1-yl]quinoline-8-carbonitrile] had an IC50 of 0.055 µM. This IC50 and that of the compound before are within 1.5-fold of each other.
The compound `N#Cc1ccc(N2C[C@H](CN3CCC4(CCNC4)C3)[C@@H](C(F)(F)F)C2)c2cccnc12` (stereo partly drawn) [Example 9, 5-[(3S,4R)-3-(2,7-diazaspiro[4.4]nonan-2-ylmethyl)-4-(trifluoromethyl)pyrrolidin-1-yl]quinoline-8-carbonitrile] showed a half-inhibitory concentration (IC50) of 0.047 µM.
For the compound `N#Cc1ccc(N2C[C@H](CN3CCC(N4CCCCC4)CC3)[C@@H](C(F)(F)F)C2)c2cccnc12` [Example 10, 5-[(3S,4R)-3-[[4-(1-piperidyl)-1-piperidyl]methyl]-4-(trifluoromethyl)pyrrolidin-1-yl]quinoline-8-carbonitrile], the IC50 stood at 0.052 µM.
`N#Cc1ccc(N2CC(CN3CCC(N4CCCCC4)CC3)C3(CC3)C2)c2nccnc12` (stereo not shown) [Example 11, 8-[7-[[4-(1-Piperidyl)-1-piperidyl]methyl]-5-azaspiro[2.4]heptan-5-yl]quinoxaline-5-carbonitrile] registered an IC50 of 0.024 µM.
Under `CC1(N)CCN(C[C@H]2CN(c3ccc(C#N)c4nccnc34)C[C@@H]2C(F)(F)F)CC1` [Example 12, 8-[(3S,4R)-3-[(4-amino-4-methyl-1-piperidyl)methyl]-4-(trifluoromethyl)pyrrolidin-1-yl]quinoxaline-5-carbonitrile] stands 0.031 µM; under `N#Cc1ccc(N2CC(CN3CCC4(CCCNC4)CC3)C3(CC3)C2)c2nccnc12` (stereo not shown) [Example 13, 8-[7-(2,9-Diazaspiro[5.5]undecan-9-ylmethyl)-5-azaspiro[2.4]heptan-5-yl]quinoxaline-5-carbonitrile], 0.05 µM.
